Data published in patent US5583101A, “Use of nitrogen oxide species and adducts to inhibit skeletal muscle contraction” (Harvard College, priority 1994, dated 1996).

Assays:
[1] = system: other NOS isoforms; conditions: Misko et al. 1993; cited from earlier work
[2] = system: rat diaphragm fiber bundles; test: Force-frequency relationship (isometric force) of isolated diaphragm fiber bundles; type: cell-based; conditions: for contractile increases (force-frequency relationship): same dose range as NIZ (100 uM-1 mM)
Experimental: FIGS. 3A and 3B. Skeletal muscle contractile properties are related to NOS activity Muscles (Soleus, n=6; DPH, diaphragm fiber bundles, n=7; EDL, extensor digitorum longus, n=5) were surgically isolated from deeply anesthetized rats, mounted in vitro at optimal length, and incubated at 37° C. in oxygenated buffered Krebs-Ringer solution containing d-tubocurarine 25 uM. Direct field stimulation (0.2 ms pulses, 250 ms train duration, supramaximal voltage) was used to evoke twitch (1 Hz) and tetanic (15, 30, 40, 50, 80, 120, 200 Hz) contractions. Isometric force was measured. Upper panel (A) depicts the average forces (+/-SE) developed at frequencies of 1-200 Hz. Tetanic stimulation at any submaximal frequency (15-150 Hz) evoked different amounts of force production among the muscles (Soleus>DPH>EDL). A vertical dotted line identifies the frequency (40 Hz) used in comparisons of NOS activity.
(§1) FIGS. 4A and 4B. Endogenous NO depresses contractile function. Fiber bundles were isolated from rat diaphragm and studied using methods described in FIG. 3. Panel A depicts the average forces (+SE) developed at stimulus frequencies of 1-120 Hz by muscles incubated in Krebs-Ringer solution containing either 7-nitroindazole (NIZ; n=3 per frequency) or aminoguanidine (AMG, n=3 per frequency). Forces are expressed as percentages of maximal tetanic force (PO).

[3] = system: rat diaphragm fiber bundles; test: Force developed at 40 Hz (submaximal tetanic contraction) by diaphragm fiber bundles; type: cell-based
Experimental: FIGS. 3A and 3B. […] Direct field stimulation (0.2 ms pulses, 250 ms train duration, supramaximal voltage) was used to evoke twitch (1 Hz) and tetanic (15, 30, 40, 50, 80, 120, 200 Hz) contractions. Isometric force was measured. Upper panel (A) depicts the average forces (+/-SE) developed at frequencies of 1-200 Hz. […] A vertical dotted line identifies the frequency (40 Hz) used in comparisons of NOS activity.
as §1, with “Endogenous NO depresses contractile function.” left out
Fiber bundles were isolated from rat diaphragm and studied using methods described in the description of FIG. 3. Data are mean forces (±SE) developed at 40 Hz by fiber bundles (n=5 or 6/group) treated with NLA (transcribed from FIG. 4B), NLA plus dipyramidole (DPM; phosphodiesterase inhibitor) 10 uM, 8-bromo-cGMP (BGMP; exogenous CGMP analogue), or DPM plus BGMP. Forces are expressed as percentages of the average force developed at 40 Hz by time- and stimulus-matched control muscle (shown±SE by horizontal dashed lines).

[4] = system: b-NOS; conditions: Moore et al.; cited from earlier work

N=C(N)NN [AMG, aminoguanidine]
NOS isoform selectivity [1]: relative selectivity towards other NOS isoforms
contractile increases (force-frequency relationship) [2]: Similar, albeit smaller, contractile increases

Nc1nc2c(nc(Br)n2[C@@H]2O[C@@H]3COP(=O)(O)O[C@H]3[C@H]2O)c(=O)[nH]1 [BGMP, 8-bromo-cGMP]
effect on contractile increases caused by NOS inhibition ([3]; 40 Hz, FIG. 5): reversed
force developed at 40 Hz, compared with control ([3]; NLA-treated bundles, DPM 10 uM, FIG. 5, p<0.0001): greater than control

OCCN(CCO)c1nc(N2CCCCC2)c2nc(N(CCO)CCO)nc(N3CCCCC3)c2n1 [DPM, dipyridamole]
effect on contractile increases caused by NOS inhibition ([3]; 40 Hz, FIG. 5): reversed

N=C(N)NCCC[C@H](N)C(=O)O [L-arginine]
contractile increases (force-frequency relationship) [2]: not

O=[N+]([O-])c1cccc2cn[nH]c12 [NIZ, 7-nitroindazole]
NOS isoform specificity [4]: b-NOS specific inhibitor
effect on contractile function (force-frequency relationship) ([2]; 100 uM, p<0.05): Significant effects
effect on contractile function (force-frequency curve) ([2]; 1 mM, FIG. 4A): profoundly influenced contractile function, causing the diaphragm force-frequency curve to closely approximate that of the soleus
shift of the diaphragm force-frequency relationship ([2]; 1 mM, FIG. 4A, repeated measures ANOVA): shifted the diaphragm force-frequency relationship up and to the left (p<0.0001 by repeated measures ANOVA) such that it was indistinguishable from the relationship measured in untreated soleus

CC(=O)N[C@@H](CSN=O)C(=O)O [SNAC, S-nitroso-N-acetylcysteine]
contractile function with exogenous NO donor ([3]; 100 uM, FIG. 4B): depressing contractile function
force developed at 40 Hz, compared with control ([3]; 40 Hz, SNAC 100 uM, NP 100 uM, NLA 10 mM, FIG. 4B): not different from control

CN(C)c1ccc2nc3ccc(=[N+](C)C)cc-3sc2c1 [methylene blue]
force production during submaximal tetanic contraction ([3]; 10 uM, p<0.001, data not shown): increased force production

Hemoglobin
force production during submaximal tetanic contraction ([3]; 40 Hz, 50 uM, n=5, p=0.052): enhances force production
force production during submaximal tetanic contraction ([3]; 40 Hz, 50-250 uM, n=10, p<0.001): enhances force production
